Source: PMC8073907, “Peptide targeting of lysophosphatidylinositol-sensing GPR55 for osteoclastogenesis tuning” (Cell Communication and Signaling : CCS, 2021)

Tests used:
Format in all cases: cell-based, human
[1] = test system: HA-GPR55 in HEK293T cells; experiment: LPI-induced ERK1/2 activation in GPR55-transfected HEK293T cells; settings: 10 µM LPI
Source text: (§1) The construct of haemagglutinin (HA)-tagged human GPR55 in pcDNA3 (HA-GPR55) was a gift from Prof. K. Mackie, Indiana University, Bloomington, IN, USA [39], while the construct ss-3 × HA-GPR55 in pcDNA3.1 (ssGPR55) with a triple HA tag at the N-terminus and an optimised signal sequence (ss, derived from amino acids 1–33 of the human growth hormone: […]) for efficient surface expression was from Prof. A. Irving, Dundee University, UK [40]. For both constructs, mutations were introduced by site-directed mutagenesis using QuickChange kits (Stratagene, La Jolla, CA, USA), according to the manufacturer instructions. The primers for the K80A mutation were 5′-[…]-3′ and 5′-[…]-3′ (Tm, 70.6 °C), and for Q87A were 5′-[…]-3′ and 5′-[…]-3′ (Tm, 73.1 °C).
For GPR55 overexpression, HEK293T cells were plated in their growth medium without antibiotics at 2.6 × 10^5 cells/well in 12-well plates, and 24 h later, the cells were transfected with 1 µg cDNA/well using Lipofectamine 2000, according to the manufacturer instructions. The pcDNA3 empty vector or that coding for human HA-GPR55 wild-type or its mutants HA-GPR55-K80A and HA-GPR55-Q87A were used.
Twenty-four hours after transfection (HEK293T, HeLa cells or clones) or 72 h after interference (RAW264.7 cells), the cells were washed twice with HBSS^++, serum deprived (HEK293T cells for 4 h in DMEM; HeLa cells and clones for 2 h in MEM plus 2 mM glutamine and 25 mM HEPES; RAW264.7 cells for 2 h in DMEM), washed once again with HBSS^++, incubated in stimulation buffer (HBSS^++ with 10 mM HEPES, 0.4% faf-BSA for HEK293T cells; HBSS^++ with 25 mM HEPES and 0.01% faf-BSA for HeLa cells, clones, and RAW264.7 cells) in the absence or presence of stimuli, at 37 °C for the indicated times. […]
Protein lysates were subjected to SDS-PAGE, and after electrophoresis, the proteins were transferred to a nitrocellulose membrane (PerkinElmer Life Science, Boston, MA, USA). […] The membranes were then washed twice with T-TBS and once with TBS for 5 min, and the signals were detected by ECL (Amersham Pharmacia, Piscataway, NJ, USA). […]

ssGPR55 wild-type = experiment: GPR55-internalisation assay, wild-type (FACS); settings: 10 µM soybean LPI
Experimental: HeLa cells were plated at 1.5 × 10^5 cells/well in six-well plates in their growth medium without antibiotics. Twenty-four hours later, the cells were transfected with 2.5 µg/well pcDNA3.1, or the mutants ssGPR55-K80A, ssGPR55-Q87A, or 1.25 µg/well (complemented with 1.25 µg/well empty vector) ssGPR55, using Lipofectamine 2000, according to the manufacturer instructions. The different cDNA amounts were necessary to reach equivalent plasma-membrane expression of the receptors, as the mutants were expressed at lower levels, as verified by FACS analyses, and in line with previous reports. […]
(§2) For the GPR55-internalisation assay, after stimulation, the HeLa cells were washed twice with cold HBSS^++, stained while adhered with the monoclonal anti-HA antibody (1:1000) in PBS plus 3% BSA for 1 h on ice, washed three times with cold PBS, incubated with the Alexa488-tagged anti-mouse antibody (1:800) in PBS plus 3% BSA for 45 min on ice. […] The collected cells were centrifuged at 300×g, suspended in PBS plus 3% BSA, and analysed by FACS.

ssGPR55-K80A = experiment: GPR55-internalisation assay, K80A mutant (FACS); settings: ssGPR55-K80A, HeLa; 10 µM soybean LPI, 15 min; three independent experiments
Source text: as §1
HeLa cells were plated at 1.5 × 10^5 cells/well in six-well plates in their growth medium without antibiotics. […]
as §2

With lysophosphatidylinositol [LPI] the “activation kinetics of ERK1/2” value ([1]; HEK293T with HA-GPR55 wild-type, K80A or Q87A) was “comparable activation kinetics of ERK1/2 in all of the transfectants”, the “ERK1/2 phosphorylation, GPR55-transfected and empty-vector-transfected cells” value ([1]; HEK293T) was “increased phosphorylation of ERK1/2” and the “time to plateau of LPI-induced internalisation” value (ssGPR55 wild-type; overexpressed ssGPR55 in HeLa cells) was 10 min. For the same substance, the “reduction of cell-surface level of receptor” value (ssGPR55 wild-type; ssGPR55 wild-type, HeLa, 15 min, three independent experiments) was 30% and the “change of cell-surface level of receptor” value (ssGPR55-K80A) was “not changed”.
